Source: patent US10870647B2, “Imidazopyridine derivative, method for preparing same, and pharmaceutical composition containing same as active ingredient for preventing or treating cancer” (DAEGU-GYEONGBUK MEDICAL INNOVATION FOUNDATION, priority 2016, dated 2020)

Key:
Experiment in all cases: Kinase selectivity, scanMAX Kinase assay panel (DiscoverX), % control at 1 uM
Format in all cases: binding
[1] = molecular target: T1, scanMAX Kinase assay panel (Homo sapiens, UniProt O43683); conditions: BUB1; 1 uM; read-out: Percent Control (%)
T1 construct: purchased DiscoverX
T1 sequence (O43683 whole entry): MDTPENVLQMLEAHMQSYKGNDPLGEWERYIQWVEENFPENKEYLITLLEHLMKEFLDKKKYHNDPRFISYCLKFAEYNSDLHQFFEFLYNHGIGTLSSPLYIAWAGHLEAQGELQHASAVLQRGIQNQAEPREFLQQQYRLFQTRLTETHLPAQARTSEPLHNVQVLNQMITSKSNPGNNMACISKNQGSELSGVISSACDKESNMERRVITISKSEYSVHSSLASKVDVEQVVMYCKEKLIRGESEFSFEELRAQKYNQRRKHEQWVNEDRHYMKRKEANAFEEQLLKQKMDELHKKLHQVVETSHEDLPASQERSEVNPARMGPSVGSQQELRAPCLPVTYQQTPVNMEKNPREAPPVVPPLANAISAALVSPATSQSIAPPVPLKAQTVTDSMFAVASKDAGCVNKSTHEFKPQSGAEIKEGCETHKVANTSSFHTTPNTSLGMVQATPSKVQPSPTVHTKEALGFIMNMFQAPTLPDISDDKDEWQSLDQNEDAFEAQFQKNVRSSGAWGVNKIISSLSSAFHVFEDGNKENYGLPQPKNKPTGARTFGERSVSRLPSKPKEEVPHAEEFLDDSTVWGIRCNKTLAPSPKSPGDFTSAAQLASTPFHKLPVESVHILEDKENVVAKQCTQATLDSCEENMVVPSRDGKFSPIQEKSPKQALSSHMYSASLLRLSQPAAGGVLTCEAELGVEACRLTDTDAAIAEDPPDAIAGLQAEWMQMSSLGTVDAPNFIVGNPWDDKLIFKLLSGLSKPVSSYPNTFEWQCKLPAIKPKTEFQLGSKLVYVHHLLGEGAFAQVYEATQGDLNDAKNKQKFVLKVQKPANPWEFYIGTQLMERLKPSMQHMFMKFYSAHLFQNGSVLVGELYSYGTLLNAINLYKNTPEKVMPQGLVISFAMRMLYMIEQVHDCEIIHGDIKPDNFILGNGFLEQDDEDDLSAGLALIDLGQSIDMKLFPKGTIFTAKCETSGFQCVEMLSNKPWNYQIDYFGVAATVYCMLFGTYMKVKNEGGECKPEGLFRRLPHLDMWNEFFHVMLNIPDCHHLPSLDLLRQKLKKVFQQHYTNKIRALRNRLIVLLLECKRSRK
How it was run: (§1)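 1 uM cpd (DMSO) per kinase; % ctrl = [cpd − pos ctrl]/[neg ctrl − pos ctrl] × 100; hit if <35.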

[2] = molecular target: T2, scanMAX Kinase assay panel (Homo sapiens, UniProt P00533, L858R/T790M); conditions: EGFR (L858R, T790M); 1 uM; read-out: Percent Control (%)
T2 construct: purchased DiscoverX
How it was run: as §1

[3] = molecular target: T3, scanMAX Kinase assay panel (Homo sapiens, UniProt P20794); conditions: MAK; 1 uM; read-out: Percent Control (%)
T3 construct: purchased DiscoverX
T3 sequence (P20794 1-623): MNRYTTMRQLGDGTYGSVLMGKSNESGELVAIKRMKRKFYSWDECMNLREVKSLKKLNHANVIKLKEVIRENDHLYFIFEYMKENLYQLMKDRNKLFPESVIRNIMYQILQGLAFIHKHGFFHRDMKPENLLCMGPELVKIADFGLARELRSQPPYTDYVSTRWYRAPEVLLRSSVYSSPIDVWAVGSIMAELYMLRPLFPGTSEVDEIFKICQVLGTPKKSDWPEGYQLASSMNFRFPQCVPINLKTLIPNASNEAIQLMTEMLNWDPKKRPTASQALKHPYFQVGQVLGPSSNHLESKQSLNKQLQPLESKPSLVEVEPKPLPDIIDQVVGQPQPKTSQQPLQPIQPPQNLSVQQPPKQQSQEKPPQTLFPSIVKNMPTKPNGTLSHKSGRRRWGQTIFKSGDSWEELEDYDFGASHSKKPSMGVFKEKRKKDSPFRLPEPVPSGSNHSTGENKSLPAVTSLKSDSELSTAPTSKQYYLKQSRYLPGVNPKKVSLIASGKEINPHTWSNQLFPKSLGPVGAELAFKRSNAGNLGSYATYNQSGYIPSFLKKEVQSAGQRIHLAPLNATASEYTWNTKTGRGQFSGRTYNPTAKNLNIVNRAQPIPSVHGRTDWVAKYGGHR
How it was run: as §1

[4] = molecular target: T4, scanMAX Kinase assay panel (Homo sapiens, UniProt Q04912); conditions: MST1R; 1 uM; read-out: Percent Control (%)
T4 construct: purchased DiscoverX
T4 sequence (Q04912 25-1400): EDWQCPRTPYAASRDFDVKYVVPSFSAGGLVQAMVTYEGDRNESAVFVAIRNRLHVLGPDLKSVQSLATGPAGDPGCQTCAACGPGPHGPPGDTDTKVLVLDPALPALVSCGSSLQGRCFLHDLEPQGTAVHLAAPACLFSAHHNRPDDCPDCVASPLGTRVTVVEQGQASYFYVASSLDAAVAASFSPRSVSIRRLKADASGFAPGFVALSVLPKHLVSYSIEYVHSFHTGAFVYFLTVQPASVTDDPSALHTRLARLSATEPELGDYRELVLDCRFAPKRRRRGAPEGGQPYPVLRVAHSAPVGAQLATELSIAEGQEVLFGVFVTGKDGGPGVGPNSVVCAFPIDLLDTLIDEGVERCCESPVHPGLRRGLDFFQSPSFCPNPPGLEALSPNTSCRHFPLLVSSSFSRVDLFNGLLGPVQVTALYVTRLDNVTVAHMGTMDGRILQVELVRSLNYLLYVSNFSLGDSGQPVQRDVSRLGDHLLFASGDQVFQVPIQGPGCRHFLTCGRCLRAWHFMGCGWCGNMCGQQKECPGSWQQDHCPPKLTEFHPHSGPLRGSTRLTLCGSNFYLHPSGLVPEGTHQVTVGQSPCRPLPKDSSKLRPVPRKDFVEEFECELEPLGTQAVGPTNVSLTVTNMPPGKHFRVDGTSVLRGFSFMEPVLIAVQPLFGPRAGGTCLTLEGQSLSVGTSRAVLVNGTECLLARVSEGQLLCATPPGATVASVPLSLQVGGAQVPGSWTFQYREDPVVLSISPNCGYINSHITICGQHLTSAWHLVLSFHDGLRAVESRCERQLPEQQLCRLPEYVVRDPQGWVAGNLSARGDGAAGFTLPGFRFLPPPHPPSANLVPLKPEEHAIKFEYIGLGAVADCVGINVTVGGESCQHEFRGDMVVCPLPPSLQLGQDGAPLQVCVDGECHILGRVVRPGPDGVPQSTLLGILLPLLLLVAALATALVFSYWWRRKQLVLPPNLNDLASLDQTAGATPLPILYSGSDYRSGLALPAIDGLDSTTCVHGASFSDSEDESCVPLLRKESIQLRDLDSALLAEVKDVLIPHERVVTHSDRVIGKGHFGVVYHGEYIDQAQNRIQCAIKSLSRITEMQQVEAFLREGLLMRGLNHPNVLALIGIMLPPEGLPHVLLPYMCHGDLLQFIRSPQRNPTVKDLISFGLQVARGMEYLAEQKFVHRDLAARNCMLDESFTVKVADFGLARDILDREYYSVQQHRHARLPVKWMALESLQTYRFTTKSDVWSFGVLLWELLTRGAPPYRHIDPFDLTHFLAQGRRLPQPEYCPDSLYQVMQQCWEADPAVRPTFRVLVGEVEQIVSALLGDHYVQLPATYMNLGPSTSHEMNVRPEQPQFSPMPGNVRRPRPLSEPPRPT
How it was run: as §1

[5] = molecular target: T5, scanMAX Kinase assay panel (Homo sapiens, UniProt Q13164); conditions: ERK5; 1 uM; read-out: Percent Control (%)
T5 construct: purchased DiscoverX
T5 sequence (Q13164 whole entry): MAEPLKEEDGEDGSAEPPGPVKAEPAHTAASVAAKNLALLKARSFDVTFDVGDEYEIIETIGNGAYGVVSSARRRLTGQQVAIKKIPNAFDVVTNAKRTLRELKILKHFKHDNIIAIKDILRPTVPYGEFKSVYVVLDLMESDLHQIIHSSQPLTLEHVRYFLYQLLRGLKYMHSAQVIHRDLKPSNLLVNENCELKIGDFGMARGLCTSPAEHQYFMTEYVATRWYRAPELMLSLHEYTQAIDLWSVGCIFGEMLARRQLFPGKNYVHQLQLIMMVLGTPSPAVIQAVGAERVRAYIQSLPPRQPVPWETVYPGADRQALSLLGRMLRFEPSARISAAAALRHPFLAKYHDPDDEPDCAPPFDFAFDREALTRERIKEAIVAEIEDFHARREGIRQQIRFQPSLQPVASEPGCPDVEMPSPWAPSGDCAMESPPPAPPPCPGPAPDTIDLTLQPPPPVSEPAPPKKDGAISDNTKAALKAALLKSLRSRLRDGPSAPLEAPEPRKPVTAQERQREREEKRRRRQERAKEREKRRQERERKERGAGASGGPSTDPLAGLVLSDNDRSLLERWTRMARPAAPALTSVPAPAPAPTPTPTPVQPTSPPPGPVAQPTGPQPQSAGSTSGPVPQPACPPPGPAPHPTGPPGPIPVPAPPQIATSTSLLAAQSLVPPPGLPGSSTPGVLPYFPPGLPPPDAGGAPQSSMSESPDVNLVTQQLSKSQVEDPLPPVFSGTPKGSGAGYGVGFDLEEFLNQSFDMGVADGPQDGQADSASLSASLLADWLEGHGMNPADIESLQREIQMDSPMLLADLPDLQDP
How it was run: as §1

[6] = molecular target: T6, scanMAX Kinase assay panel (Homo sapiens, UniProt Q13470); conditions: TNK1; 1 uM; read-out: Percent Control (%)
T6 construct: purchased DiscoverX
T6 sequence (Q13470 1-666): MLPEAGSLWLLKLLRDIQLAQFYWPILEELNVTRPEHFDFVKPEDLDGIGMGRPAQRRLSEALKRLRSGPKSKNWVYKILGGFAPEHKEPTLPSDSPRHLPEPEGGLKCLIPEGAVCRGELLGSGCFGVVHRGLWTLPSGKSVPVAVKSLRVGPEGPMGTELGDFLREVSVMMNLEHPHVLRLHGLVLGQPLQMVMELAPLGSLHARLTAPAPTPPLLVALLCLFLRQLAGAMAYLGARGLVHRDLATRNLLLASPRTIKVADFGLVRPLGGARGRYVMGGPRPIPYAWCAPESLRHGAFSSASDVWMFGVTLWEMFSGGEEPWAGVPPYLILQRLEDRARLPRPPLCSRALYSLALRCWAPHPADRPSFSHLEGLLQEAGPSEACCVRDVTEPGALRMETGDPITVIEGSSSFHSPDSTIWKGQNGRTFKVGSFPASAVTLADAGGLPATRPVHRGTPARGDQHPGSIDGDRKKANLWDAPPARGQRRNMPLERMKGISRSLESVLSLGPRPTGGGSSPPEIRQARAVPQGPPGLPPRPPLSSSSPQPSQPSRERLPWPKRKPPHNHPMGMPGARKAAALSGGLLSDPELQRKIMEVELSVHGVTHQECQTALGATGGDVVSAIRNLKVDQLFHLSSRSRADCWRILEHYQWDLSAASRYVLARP
How it was run: as §1

[7] = molecular target: T7, scanMAX Kinase assay panel (Homo sapiens, UniProt Q6DT37); conditions: DMPK2; 1 uM; read-out: Percent Control (%)
T7 construct: purchased DiscoverX
T7 sequence (Q6DT37 whole entry): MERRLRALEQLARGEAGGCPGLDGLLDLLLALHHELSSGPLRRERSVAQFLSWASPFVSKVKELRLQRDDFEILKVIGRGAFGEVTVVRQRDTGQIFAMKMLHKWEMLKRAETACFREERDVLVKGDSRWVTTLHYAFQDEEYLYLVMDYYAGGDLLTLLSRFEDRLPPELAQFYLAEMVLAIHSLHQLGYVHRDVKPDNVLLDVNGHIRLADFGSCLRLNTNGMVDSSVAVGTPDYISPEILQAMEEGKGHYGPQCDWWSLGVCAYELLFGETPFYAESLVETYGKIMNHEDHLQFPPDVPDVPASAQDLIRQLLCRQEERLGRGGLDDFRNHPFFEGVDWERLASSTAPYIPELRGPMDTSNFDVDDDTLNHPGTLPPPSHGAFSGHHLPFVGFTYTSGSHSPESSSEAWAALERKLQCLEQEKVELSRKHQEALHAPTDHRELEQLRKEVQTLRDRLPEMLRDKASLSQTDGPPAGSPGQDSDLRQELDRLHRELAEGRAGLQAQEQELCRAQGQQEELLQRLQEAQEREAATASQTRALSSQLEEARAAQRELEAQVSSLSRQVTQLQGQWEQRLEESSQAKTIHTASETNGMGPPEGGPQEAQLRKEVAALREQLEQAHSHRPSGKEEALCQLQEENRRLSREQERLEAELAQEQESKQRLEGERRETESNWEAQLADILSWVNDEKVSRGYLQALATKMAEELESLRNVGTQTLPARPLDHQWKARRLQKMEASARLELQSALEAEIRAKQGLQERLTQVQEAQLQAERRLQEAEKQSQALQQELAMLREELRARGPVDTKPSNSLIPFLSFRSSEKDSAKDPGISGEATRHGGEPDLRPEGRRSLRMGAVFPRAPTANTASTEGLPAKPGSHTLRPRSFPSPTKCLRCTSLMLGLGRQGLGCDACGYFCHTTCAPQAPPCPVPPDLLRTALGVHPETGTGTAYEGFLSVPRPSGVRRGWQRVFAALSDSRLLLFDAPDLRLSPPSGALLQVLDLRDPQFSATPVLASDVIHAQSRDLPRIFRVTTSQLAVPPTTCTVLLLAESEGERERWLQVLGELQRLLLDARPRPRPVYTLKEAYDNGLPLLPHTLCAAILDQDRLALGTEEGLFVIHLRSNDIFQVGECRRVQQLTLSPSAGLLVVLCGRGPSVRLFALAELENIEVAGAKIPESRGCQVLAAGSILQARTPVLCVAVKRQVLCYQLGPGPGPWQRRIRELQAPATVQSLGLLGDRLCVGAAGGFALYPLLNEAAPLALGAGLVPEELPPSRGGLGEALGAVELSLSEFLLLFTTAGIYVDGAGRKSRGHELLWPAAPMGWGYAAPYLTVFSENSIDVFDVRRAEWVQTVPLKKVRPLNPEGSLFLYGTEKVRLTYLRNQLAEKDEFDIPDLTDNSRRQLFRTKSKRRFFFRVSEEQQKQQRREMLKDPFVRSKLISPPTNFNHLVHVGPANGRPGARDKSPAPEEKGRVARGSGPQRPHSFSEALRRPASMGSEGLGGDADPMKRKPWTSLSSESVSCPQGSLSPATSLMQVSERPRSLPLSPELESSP
How it was run: as §1

[8] = molecular target: T8, scanMAX Kinase assay panel (Homo sapiens, UniProt Q8IW41); conditions: MAPKAPK5; 1 uM; read-out: Percent Control (%)
T8 construct: purchased DiscoverX
T8 sequence (Q8IW41 1-473): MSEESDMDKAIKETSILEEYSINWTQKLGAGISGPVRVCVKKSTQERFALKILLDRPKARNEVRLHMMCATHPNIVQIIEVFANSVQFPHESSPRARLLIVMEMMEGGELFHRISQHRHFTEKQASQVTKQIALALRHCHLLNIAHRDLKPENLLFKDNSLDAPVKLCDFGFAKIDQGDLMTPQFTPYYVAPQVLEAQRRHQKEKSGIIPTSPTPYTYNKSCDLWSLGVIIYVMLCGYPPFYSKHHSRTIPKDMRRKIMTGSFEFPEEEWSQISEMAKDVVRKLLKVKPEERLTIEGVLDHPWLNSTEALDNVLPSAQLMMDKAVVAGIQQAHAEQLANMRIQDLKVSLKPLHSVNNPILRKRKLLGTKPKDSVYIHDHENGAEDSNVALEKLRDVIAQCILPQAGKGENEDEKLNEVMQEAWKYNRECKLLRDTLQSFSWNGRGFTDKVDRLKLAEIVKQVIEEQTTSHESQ
How it was run: as §1

| Compound | remaining binding at 1 µM [1] [%] | remaining binding at 1 µM [2] [%] | remaining binding at 1 µM [3] [%] | remaining binding at 1 µM [4] [%] | remaining binding at 1 µM [5] [%] | remaining binding at 1 µM [6] [%] | remaining binding at 1 µM [7] [%] | remaining binding at 1 µM [8] [%] |
| --- | --- | --- | --- | --- | --- | --- | --- | --- |
| Cc1ccc(C(=O)Nc2ccc(CN3CCN(C)CC3)c(C(F)(F)F)c2)cc1C#Cc1cnc2c(Nc3cnn(C)c3)cccn12 [Example 1, 4-methyl-3-((8-((1-methyl-1H-pyrazol-4-yl)amino)imidazo[1,2-a]pyridin-3-yl)ethynyl)-N-(4-((4-methylpiperazin-1-yl)methyl)-3-(trifluoromethyl)phenyl)benzamide] | 84 | 17 | 10 | 32 | 78 | 0 | 100 | 100 |
| Cc1cn(-c2cc(NC(=O)c3ccc(C)c(C#Cc4cnc5c(Nc6cnn(C)c6)cccn45)c3)cc(C(F)(F)F)c2)cn1 [Example 12, 4-methyl-N-(3-(4-methyl-1H-imidazol-1-yl)-5-(trifluoromethyl)phenyl)-3-((8-((1-methyl-1H-pyrazol-4-yl)amino)imidazo[1,2-a]pyridin-3-yl)ethynyl)benzamide] | 100 | 69 | 81 | 87 | 90 | 19 | 92 | 100 |
| Cc1ccc(NC(=O)C2(C(=O)Nc3ccc(F)cc3)CC2)cc1C#Cc1cnc2c(Nc3cnn(C(C)C)c3)cccn12 [Example 78] | 100 | 84 | 100 | 97 | 100 | 100 | 100 | 100 |
